Laboratory results taken from patent US20030212136A1 (priority 2003, published 2003).
Converted amounts (≈) assume the structure as drawn. Read-outs that look alike come from different tables or passages of the source. Each block holds one compound with its values, some of them ahead of it.

How the values were obtained:
[1] = physchem; details: water
[2] = gastric pH range of 1-2, aqueous solution; cited from earlier work
[3] = system: brain dopamine; details: rats, diet supplemented for 2 weeks; 70% depletion in nonsupplemented rodents; cited from earlier work
[4] = system: GP3A transgenic mice; details: creatine supplementation; cited from earlier work
[5] = system: patients with various muscular dystrophies; details: supplemented for 8 weeks; cited from earlier work
[6] = Partition coefficient

solubility thermodynamic [1]: 89.3 mg/mL (≈ 403 mM)
SMILES: CN(CC(=O)OCc1ccccc1)C(=N)N [Creatine Benzyl Ester, creatine benzyl ester]

solubility thermodynamic [1]: 206 mg/mL (≈ 1290 mM)
SMILES: CCOC(=O)CN(C)C(=N)N [Creatine Ethyl Ester, creatine ethyl ester]

SMILES: CN(CC(=O)O)C(=N)N [Creatine]
creatinine/creatine ratio at equilibrium [2]: greater than or equal to 30 | reduction in brain dopamine [3]: 10% | increase of life-span [4]: up to 26 days | improvement in neuromuscular symptom score [5]: 10% | increase in strength [5]: 3% | partition coefficient [6]: 0.015

SMILES: CN(CC(=O)O)C(=N)N.O [creatine monohydrate]
partition coefficient ([6]; studies in the laboratory): 0.015±0.007
